These results are taken from patent US20210051954A1, “METHOD FOR INCREASING THE RESISTANCE OF A CEREAL PLANT” (BASF AGROCHEMICAL PRODUCTS B.V., priority 2018, published 2021).

The subject of test [1] is Maize (Corn). As to the kind of experiment: % germination in maize (corn) by drench treatment, 21 days after planting. It is filed as in vivo. The following applies: 30% FS formulation; for % Germination in Mineral soil in Standard conditions: standard watered conditions (moisture above 80%); for % Germination in Organic soil in Draught conditions: drought conditions (re-watering at 45% pot moisture). An excerpt: (§1) Watering cycles—The level of stress is created by watering the pots based on the % of pot moisture as measured by wireless probes. Depending on weather conditions the number of cycles vary as needed.
(§2) The % of moisture triggers the watering process independent of the time that it takes to reach this point.
(§3) In “well-watered conditions” or “standard watered conditions”, in pots the % moisture is kept above 80%.
(§4) In “drought conditions”, in the pots re-watering happens at 45% pot moisture.
(§5) “Untreated” means that the seed has not been exposed to the compound I (a).
(§6) The treaments(s) were applied directly over the planted seed at the rates found in the table(s) below. Seeds were then covered and the % rate of germination was calculated at 21 days after planting.
(§7) The % rate of germination was calculated as the number of seeds that emerged divided by the number of seeds planted and presented as as a percentage.
(§8) Seeds were planted in two types of soil (Mineral and Organic) which were free of pest (insects, weeds, or diseases) to avoid interactions with the treatments applied
Example 1: Increase in % of Germination in Maize (Corn) by Drench Treatment

Test [2] relates to Wheat. As to the kind of experiment: % germination in wheat by seed treatment, 21 days after planting. In kind it is in vivo. The following applies: 0.5 mg of (la)/plant, 30% FS formulation.
Source text: as §1, §2, §3, §4, §5, §6, §7, §8
Example 2: Increase % Germination in Wheat by Seed Treatement

Consider `CN(C(=O)c1ccccc1)c1cccc(C(=O)Nc2c(Br)cc(C(F)(C(F)(F)F)C(F)(F)F)cc2C(F)(F)F)c1F` [(la)], for which the “% Germination in Mineral soil in Standard conditions” value in test [1] (0.5 mg of (la)/plant) is 100%; in test [1] (1 mg of (la)/plant), 100%; in test [2] (mineral soil, standard watered conditions (moisture above 80%)), 95%. Further, the “% Germination in Organic soil in Draught conditions” value amounted to 98% in test [1] (0.5 mg of (la)/plant); 100% in test [1] (1 mg of (la)/plant); 95% in test [2] (organic soil, drought conditions (re-watering at 45% pot moisture)). In test [2] (organic soil, standard watered conditions (moisture above 80%)), the “% Germination in Organic soil in Standard conditions” value was 100%.
